Laboratory results taken from paper PMC9516332 (Frontiers in Oncology, 2022).
Where two headings read alike, the source gives them in different places.

Assays:
[1] = system: AP-1060 (ETV6-NTRK3); test: Cell viability assay
[2] = system: 134 cancer cell lines; test: Cell viability assay (ATPlite, 72 hours), IC50 on cancer cell line panel

IC50 ([2]; HEC-6, read-out: IC50 in cell proliferation assay, HEC-6 cell line (EGFR p.A289V)): 16.9 µM | IC50 ([2]; Homo sapiens, 769-P, read-out: IC50 in cell proliferation assay, cell line 769-P): 3.15 µM | IC50 ([2]; Homo sapiens, 786-0, read-out: IC50 in cell proliferation assay, cell line 786-O): 3.96 µM | IC50 ([2]; Homo sapiens, A 172, read-out: IC50 in cell proliferation assay, cell line A-172): 0.758 µM | IC50 ([2]; Homo sapiens, A204, read-out: IC50 in cell proliferation assay, cell line A-204): 0.679 µM | IC50 ([2]; Homo sapiens, A498, read-out: IC50 in cell proliferation assay, cell line A-498): 8.94 µM | IC50 ([2]; Homo sapiens, A549, read-out: IC50 in cell proliferation assay, cell line A-549): 8.17 µM | IC50 ([2]; Homo sapiens, A704, read-out: IC50 in cell proliferation assay, cell line A-704): 2.49 µM | IC50 ([2]; Homo sapiens, A-375, read-out: IC50 in cell proliferation assay, cell line A-375 (BRAF p.V600E)): 12.1 µM | IC50 ([2]; Homo sapiens, A-427, read-out: IC50 in cell proliferation assay, cell line A-427): 1.1 µM | IC50 ([2]; Homo sapiens, ACHN, read-out: IC50 in cell proliferation assay, cell line ACHN): 2.08 µM | IC50 ([2]; Homo sapiens, AN3-CA, read-out: IC50 in cell proliferation assay, cell line AN3-CA (FGFR2 p.N549K)): 0.9 µM | IC50 ([2]; Homo sapiens, ASPC1, read-out: IC50 in cell proliferation assay, cell line AsPC-1): 25.9 µM | IC50 ([2]; Homo sapiens, AU565, read-out: IC50 in cell proliferation assay, cell line AU565 (ERBB2 amplification)): 8.92 µM | IC50 ([2]; Homo sapiens, BT-20, read-out: IC50 in cell proliferation assay, cell line BT-20): 12.6 µM | IC50 ([2]; Homo sapiens, BT-474, read-out: IC50 in cell proliferation assay, cell line BT-474 (ERBB2 amplification)): > 31.6 µM | IC50 ([2]; Homo sapiens, BT-549, read-out: IC50 in cell proliferation assay, cell line BT-549): 1.93 µM | IC50 ([2]; Homo sapiens, BXPC-3, read-out: IC50 in cell proliferation assay, cell line BxPC-3): 3.46 µM | IC50 ([2]; Homo sapiens, C-33-A, read-out: IC50 in cell proliferation assay, cell line C-33 A): 0.981 µM | IC50 ([2]; Homo sapiens, CAL-27, read-out: IC50 in cell proliferation assay, cell line CAL-27): 1.95 µM | IC50 ([2]; Homo sapiens, CCF-STTG1, read-out: IC50 in cell proliferation assay, cell line CCF-STTG1): 5.77 µM | IC50 ([2]; Homo sapiens, CCRF-CEM, read-out: IC50 in cell proliferation assay, cell line CCRF-CEM): 13.3 µM | IC50 ([2]; Homo sapiens, COLO 205, read-out: IC50 in cell proliferation assay, cell line COLO 205 (BRAF p.V600E)): 12.9 µM | IC50 ([2]; Homo sapiens, COLO-829, read-out: IC50 in cell proliferation assay, cell line COLO 829 (BRAF p.V600E)): 24.7 µM | IC50 ([2]; Homo sapiens, DLD-1, read-out: IC50 in cell proliferation assay, cell line DLD-1): 9.98 µM | IC50 ([2]; Homo sapiens, DU-4475, read-out: IC50 in cell proliferation assay, cell line DU4475 (BRAF p.V600E)): 11.8 µM | IC50 ([2]; Homo sapiens, Daoy, read-out: IC50 in cell proliferation assay, cell line Daoy): 10.1 µM | IC50 ([2]; Homo sapiens, DoTc2-4510, read-out: IC50 in cell proliferation assay, cell line DoTc2 4510): 3.5 µM | IC50 ([2]; Homo sapiens, EOL1, read-out: IC50 in cell proliferation assay, cell line EoL-1 (FIP1L1-PDGFRA)): 0.016 µM | IC50 ([2]; Homo sapiens, FaDu, read-out: IC50 in cell proliferation assay, cell line FaDu): 3.65 µM | IC50 ([2]; Homo sapiens, G-361, read-out: IC50 in cell proliferation assay, cell line G-361 (BRAF p.V600E)): 17.6 µM | IC50 ([2]; Homo sapiens, HCC827, read-out: IC50 in cell proliferation assay, cell line HCC827 (EGFR exon19del)): 3.01 µM | IC50 ([2]; Homo sapiens, HCC4006, read-out: IC50 in cell proliferation assay, cell line HCC4006 (EGFR exon19del)): 5.93 µM | IC50 ([2]; Homo sapiens, HCT-15, read-out: IC50 in cell proliferation assay, cell line HCT 15): 5.73 µM | IC50 ([2]; Homo sapiens, HCT-116, read-out: IC50 in cell proliferation assay, cell line HCT 116): 10.3 µM | IC50 ([2]; Homo sapiens, HEC-1, read-out: IC50 in cell proliferation assay, HEC-1 cell line): 2.32 µM | IC50 ([2]; Homo sapiens, HEC-1B, read-out: IC50 in cell proliferation assay, HEC-1-B cell line (EGFR p.A864V)): 0.608 µM | IC50 ([2]; Homo sapiens, HL-60, read-out: IC50 in cell proliferation assay, HL-60 cell line): 25.2 µM | IC50 ([2]; Homo sapiens, HT, read-out: IC50 in cell proliferation assay, HT cell line): > 31.6 µM | IC50 ([2]; Homo sapiens, HT-1080, read-out: IC50 in cell proliferation assay, HT-1080 cell line): 8.1 µM | IC50 ([2]; Homo sapiens, Hs746T, read-out: IC50 in cell proliferation assay, Hs 746.T cell line (MET exon14skip + amplification)): 9.64 µM | IC50 ([2]; Homo sapiens, Hs-578T, read-out: IC50 in cell proliferation assay, Hs 578T cell line): 1.15 µM | IC50 ([2]; Homo sapiens, HuTu80, read-out: IC50 in cell proliferation assay, HuTu 80 cell line): 0.864 µM | IC50 ([2]; Homo sapiens, J82, read-out: IC50 in cell proliferation assay, J82 cell line): 1.74 µM | IC50 ([2]; Homo sapiens, Jurkat E6.1, read-out: IC50 in cell proliferation assay, Jurkat E6.1 cell line): 11.4 µM | IC50 ([2]; Homo sapiens, K562, read-out: IC50 in cell proliferation assay, K-562 cell line): 5.58 µM | IC50 ([2]; Homo sapiens, KATO III, read-out: IC50 in cell proliferation assay, KATO III cell line (FGFR2 amplification)): 0.273 µM | IC50 ([2]; Homo sapiens, KG-1, read-out: IC50 in cell proliferation assay, KG-1 cell line (FGFR1OP2-FGFR1)): 0.131 µM | IC50 ([2]; Homo sapiens, KLE, read-out: IC50 in cell proliferation assay, KLE cell line): 1.82 µM | IC50 ([2]; Homo sapiens, KMS-11, read-out: IC50 in cell proliferation assay, KMS-11 cell line (FGFR3 p.Y373C)): 0.394 µM | IC50 ([2]; Homo sapiens, KU812, read-out: IC50 in cell proliferation assay, Ku812 cell line): 3.74 µM | IC50 ([2]; Homo sapiens, Kasumi 1, read-out: IC50 in cell proliferation assay, Kasumi-1 cell line (KIT p.N822K)): 0.184 µM | IC50 ([2]; Homo sapiens, LC-2-ad, read-out: IC50 in cell proliferation assay, LC-2/ad cell line (CCDC6-RET)): 0.054 µM | IC50 ([2]; Homo sapiens, LNCaP-Clone-FGC, read-out: IC50 in cell proliferation assay, LNCaP clone FGC cell line): > 31.6 µM | IC50 ([2]; Homo sapiens, LS174T, read-out: IC50 in cell proliferation assay, LS174T cell line): 2.29 µM | IC50 ([2]; Homo sapiens, LS-411N, read-out: IC50 in cell proliferation assay, LS411N cell line (BRAF p.V600E)): 25.6 µM | IC50 ([2]; Homo sapiens, LoVo, read-out: IC50 in cell proliferation assay, LoVo cell line): 1.52 µM | IC50 ([2]; Homo sapiens, MCF7, read-out: IC50 in cell proliferation assay, MCF-7 cell line): > 31.6 µM | IC50 ([2]; Homo sapiens, MDA-MB-231, read-out: IC50 in cell proliferation assay, MDA-MB-231 cell line): 0.555 µM | IC50 ([2]; Homo sapiens, MDA-MB-453, read-out: IC50 in cell proliferation assay, MDA-MB-453 cell line): > 31.6 µM | IC50 ([2]; Homo sapiens, MDA-MB-468, read-out: IC50 in cell proliferation assay, MDA-MB-468 cell line): 8.52 µM | IC50 ([2]; Homo sapiens, MG-63, read-out: IC50 in cell proliferation assay, MG-63 cell line): 1.88 µM | IC50 ([2]; Homo sapiens, MIA PaCa-2, read-out: IC50 in cell proliferation assay, MIA PaCa-2 cell line): 1.56 µM | IC50 ([2]; Homo sapiens, MKN-45, read-out: IC50 in cell proliferation assay, MKN45 cell line (MET amplification)): > 31.6 µM | IC50 ([2]; Homo sapiens, MOLM-13, read-out: IC50 in cell proliferation assay, MOLM-13 cell line (FLT3 ITD)): 0.033 µM | IC50 ([2]; Homo sapiens, MOLT-4, read-out: IC50 in cell proliferation assay, MOLT-4 cell line): 9.35 µM
SMILES: CO[C@]1(C(=O)N[C@@H](C)c2ccc(-n3cc(F)cn3)nc2)CC[C@H](c2nc(C)cc(Nc3cc(C)[nH]n3)n2)CC1 [pralsetinib]
higher sensitivity of AP-1060 to pralsetinib compared to selpercatinib ([1]; cell viability): ~20 fold | IC50 ([1]; read-out: IC50 in cell proliferation assay): 0.206 µM
